Reference: patent US12655116B2, “Substituted isophthalic acid diamides” (Bayer Aktiengesellschaft, priority 2020, dated 2026)

Tests used:
MATIN = assay: Pre-emergence herbicidal action against MATIN; type: in vivo, Matricaria inodora; details: dosage 80 g/ha
Outline: (§1)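 Pre-emergence soil-surface spray of formulated compound (WP or EC; 600 to 800 l/ha; 0.2% wetting agent) over seeds sown in sandy loam. After 3 weeks under greenhouse conditions, damage is estimated visually in percent against untreated plants.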

AMARE [1] = assay: Pre-emergence herbicidal action against AMARE; type: in vivo, Amaranthus retroflexus
Outline: as §1

POLCO = assay: Pre-emergence herbicidal action against POLCO; type: in vivo, Polygonum convolvulus
Description: Seeds of monocotyledonous and dicotyledonous weed plants and crop plants are laid out in sandy loam soil in wood-fiber pots and covered with soil. The compounds of the invention, formulated in the form of wettable powders (WP) or as emulsion concentrates (EC), are then applied to the surface of the covering soil in the form of an aqueous suspension or emulsion at a water application rate equivalent to 600 to 800 l/ha, with addition of 0.2% wetting agent. After the treatment, the pots are placed in a greenhouse and kept under good growth conditions for the trial plants. The damage to the test plants is scored visually after a test period of 3 weeks by comparison with untreated controls (herbicidal activity in percent (%): 100% activity=the plants have died, 0% activity=like control plants). […] The tables below illustrate, in an illustrative manner, the post-emergence herbicidal action of the compounds of the invention, the herbicidal activity being stated in percent.

ECHCG [2] = assay: Pre-emergence herbicidal action against ECHCG; type: in vivo, Echinochloa crus-galli; details: 80 g/ha
Outline: as §1

DIGSA = assay: Pre-emergence herbicidal action against DIGSA; type: in vivo, Digitaria sanguinalis
Outline: as §1

PHBPU = assay: Post-emergence herbicidal action against PHBPU; type: in vivo, Pharbitis purpurea; details: dosage 20 g/ha
Outline: (§2)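 Greenhouse plants in sandy loam were sprayed at the one-leaf stage, 2 to 3 weeks after sowing, with WP or EC formulations as aqueous suspension or emulsion (600 to 800 l/ha water, 0.2% wetting agent). Visual damage was scored about 3 weeks later versus untreated controls, 0% = like control, 100% = dead.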

VERPE = assay: Pre-emergence herbicidal action against VERPE; type: in vivo, Veronica persica; details: dosage 80 g/ha
Outline: as §1

VIOTR = assay: Pre-emergence herbicidal action against VIOTR; type: in vivo, Viola tricolor; details: dosage 80 g/ha
Outline: as §1

SETVI [3] = assay: Post-emergence herbicidal action against SETVI; type: in vivo, Setaria viridis; details: dosage 20 g/ha
Outline: as §2

ECHCG [4] = assay: Post-emergence herbicidal action against ECHCG; type: in vivo, Echinochloa crus-galli
Outline: as §2

ABUTH [5] = assay: Pre-emergence herbicidal action against ABUTH; type: in vivo, Abutilon theophrasti; details: 80 g/ha, scored visually after 3 weeks vs untreated controls (100% = plants have died, 0% = like control plants)
Outline: as §1

AMARE [6] = assay: Post-emergence herbicidal action against AMARE; type: in vivo, Amaranthus retroflexus; details: 20 g/ha, visual assessment about 3 weeks after treatment, 100% = plants have died, 0% = like control plants
Outline: as §2

ABUTH [7] = assay: Post-emergence herbicidal action against ABUTH; type: in vivo, Abutilon theophrasti; details: dosage 20 g/ha, visual assessment about 3 weeks after treatment vs untreated controls
Outline: as §2

SETVI [8] = assay: Pre-emergence herbicidal action against SETVI; type: in vivo, Setaria viridis; details: dosage 80 g/ha
Outline: as §1

[9] = 80 g/ha, scored visually after 3 weeks vs untreated controls (100% = plants have died, 0% = like control plants)
[10] = 20 g/ha, scored visually after 3 weeks vs untreated controls, 100% = plants have died, 0% = like control plants

CCn1nnnc1NC(=O)c1ccc(C(F)(F)F)c(C(=O)NCCSC)c1C [Example 2-35]
80%: Pre-emergence action against MATIN in % (MATIN) | Pre-emergence action against POLCO in % (POLCO; dosage 80 g/ha)
90%: Pre-emergence action against AMARE in % (AMARE [1]; [9])

CCn1nnnc1NC(=O)c1ccc(C(F)(F)F)c(C(=O)NCc2cccs2)c1Cl [Example 2-144]
90%: Pre-emergence action against MATIN in % (MATIN) | Pre-emergence action against VIOTR in % (VIOTR) | Pre-emergence action against POLCO in % (POLCO; dosage 80 g/ha)
80%: Pre-emergence action against ECHCG in % (ECHCG [2]) | Pre-emergence action against AMARE in % (AMARE [1]; [10]) | Post-emergence action against PHBPU in % (PHBPU) | Pre-emergence action against POLCO in % (POLCO; dosage 20 g/ha)
100%: Pre-emergence action against AMARE in % (AMARE [1]; [9]) | Pre-emergence action against DIGSA in % (DIGSA; dosage 80 g/ha) | Pre-emergence action against VERPE in % (VERPE)

Cc1nnc(NC(=O)c2ccc(C(F)F)c(C(=O)NC3CC3)c2Br)o1 [Example 6-166]
90%: Post-emergence action against ECHCG in % (ECHCG [4]; dosage 20 g/ha) | Pre-emergence action against AMARE in % (AMARE [1]; [10]) | Post-emergence action at 20 g/ha against AMARE in % (AMARE [6])
80%: Pre-emergence action against ECHCG in % (ECHCG [2]) | Post-emergence action against ECHCG in % (ECHCG [4]; dosage 5 g/ha) | Pre-emergence action against DIGSA in % (DIGSA; dosage 20 g/ha) | Pre-emergence action against POLCO in % (POLCO; dosage 80 g/ha) | Post-emergence action against ABUTH in % (ABUTH [7])
100%: Pre-emergence action against MATIN in % (MATIN) | Post-emergence action against SETVI in % (SETVI [3]) | Pre-emergence action against AMARE in % (AMARE [1]; [9]) | Pre-emergence action against DIGSA in % (DIGSA; dosage 80 g/ha) | Pre-emergence action against ABUTH (herbicidal activity) (ABUTH [5]) | Pre-emergence action against VIOTR in % (VIOTR) | Pre-emergence action against SETVI in % (SETVI [8])

Cc1nnc(NC(=O)c2ccc(C(F)F)c(C(=O)NCC(F)F)c2Br)o1 [Example 6-169]
80%: Pre-emergence action against MATIN in % (MATIN) | Post-emergence action against ECHCG in % (ECHCG [4]; dosage 5 g/ha)
100%: Pre-emergence action against AMARE in % (AMARE [1]; [9]) | Pre-emergence action against POLCO in % (POLCO; dosage 80 g/ha) | Pre-emergence action against SETVI in % (SETVI [8])
90%: Pre-emergence action against ECHCG in % (ECHCG [2]) | Post-emergence action against SETVI in % (SETVI [3]) | Post-emergence action against ECHCG in % (ECHCG [4]; dosage 20 g/ha) | Pre-emergence action against AMARE in % (AMARE [1]; [10]) | Pre-emergence action against DIGSA in % (DIGSA; dosage 80 g/ha) | Pre-emergence action against ABUTH (herbicidal activity) (ABUTH [5]) | Post-emergence action at 20 g/ha against AMARE in % (AMARE [6])
